IC50 and viability, T/C data for 6 molecules are collected here from PubChem BioAssay AID2060503 (Molecular Pharmacology Branch, DTP, NCI, 2025).

pIC50: −log10 of the molar value. “And” between values parts separate entries of the source, which are not always exact repeats. Equal values may be shown once.

The subject of the test is 817829-284-R-J1-PDC complex spheroids, viability. Briefly: Anticancer human tumor 817829-284-R-J1-PDC patient-derived colon adenocarcinoma cell line growth inhibition [GQUAD]. As to conditions: for viability, T/C: stronger effect = lower value. The source says:
DNA G-quadruplex Stabilizer Agents in Combinations in Complex Spheroids
A high-throughput screen of multi-cell type tumor spheroids was designed to identify active combinations of DNA G-quadruplex stabilizer agents and targeted small molecules. Complex spheroids include a stromal component modeled by human endothelial cells (HUVEC) and fibroblasts modeled by human mesenchymal stem cells (MSCs). The concentration ranges selected for each drug and investigational agent were based upon clinically achievable concentrations if the clinical Cmax of the agent was known.
Compounds. The drugs and investigational agents: pidnarulex (CX-5461; NSC782164), APTO-253 (NSC789042), BRACO-19 (NSC847499), peposertib (NSC802822), ceralasertib (NSC780249), elimusertib (NSC800525), camonsertib (NSC841442), AZD-1390 (NSC803789), olaparib (NSC753686), talazoparib (NSC767125), ART-558 (NSC835418), sotorasib (NSC818433), MRTX-1133 (NSC836407), SN-38 (NSC673596), topotecan (NSC609699), etoposide (NSC141540), doxorubicin (NSC123127), gemcitabine (NSC613327), 5-fluorouracil (NSC19893), paclitaxel (NSC125973), vemurafenib (NSC761431), panobinostat (NSC761190), R-306465 (JNJ-16241199; NSC773264), adavosertib (NSC754352), TP-3654 (NSC805149), carboplatin (NSC241240), KSQ-4279 (NSC840948), and staurosporine (NSC755774) were obtained from the National Cancer Institute (NCI) Developmental Therapeutics Program Chemical Repository (34). The FDA-approved anticancer drug set is available from the NCI Developmental Therapeutics Program. […] The stock solutions were prepared in dimethyl sulfoxide (DMSO, Sigma-Aldrich, St. Louis, MO, cat. D2650) at 800-fold the tested concentration and stored at -70 degrees C prior to their use. All drugs and investigational agents were tested over a range starting from a high concentration at or near the clinical Cmax and decreasing in half-log increments. If the clinical Cmax for an agent had not been determined, the highest concentration tested was 10 microM.
2.3 Cell Culture. All cells were maintained in an incubator at 37 degrees C and 5% CO2 with 95% humidity. The PDC lines were cultured according to standard operating procedures established by the NCI PDMR. All PDCs were thawed and cultured in Matrigel-coated flasks prepared with a working solution of 1X Ham's F-12 nutrient mix, without supplementation (Invitrogen, cat. 11765054), 100 U/mL penicillin-streptomycin (Invitrogen, cat. 15140122), and 2.5% Matrigel (Corning Inc., cat. 354248) for the first three passages. The 857933-349-R-J2-PDC line was cultured in 6C/Colon 1B media, which includes advanced DMEM/F-12 (Thermo Fisher Scientific, cat. 12634028), 10 mM HEPES (Thermo Fisher Scientific, cat. 15630080), 1X GlutaMAX supplement (Thermo Fisher Scientific, cat. 35050061), 0.1 mg/mL primocin (InvivoGen, cat. ant-pm-2), 10% defined fetal bovine serum, heat inactivated (HyClone Laboratories Inc., cat. SH30070.03HI), 50% L-WRN conditioned media (ATCC, cat. CRL-3276), 1.25 mM N-Acetyl-L-cysteine (Sigma-Aldrich, cat. A9165), 10 mM nicotinamide (Sigma-Aldrich, cat. N0636), 1X B-27 supplement (Thermo Fisher Scientific, cat. 17504044), 1X N-2 supplement (Thermo Fisher Scientific, cat. 17502048), 10 microM Y-27632 dihydrochloride (Tocris Bioscience, cat. 1254), and 50 ng/mL human EGF recombinant protein (Thermo Fisher Scientific, cat. PHG0311). The 485176-168-R4-J1-PDC line was cultured in Panc media, which includes all 6C/Colon 1B media components plus 100 ng/mL human FGF-10 (Thermo Fisher Scientific, cat. 100-26), 500 nM SB-431542 (Selleckchem, cat. S1067), and gastrin (Tocris, cat. 3006).
[…]

The mark [1] stands for this setting: curve of first compound, second compound 0.0316 µM.
[2] abbreviates: curve of first compound, second compound 0.1 µM.
The mark [3] stands for this setting: curve of first compound, second compound 0.316 µM.
The mark [4] stands for this setting: curve of first compound, second compound 1 µM.
Setting [5] is: curve of first compound, second compound 3.16 µM.
Where [6] appears, read: curve of first compound, second compound 10 µM.
Where [7] appears, read: second compound 0.0316 µM, first compound 0.0316 µM.
The mark [8] stands for this setting: second compound 0.0316 µM, first compound 0.1 µM.
Where [9] appears, read: second compound 0.0316 µM, first compound 0.316 µM.
Where [10] appears, read: second compound 0.0316 µM, first compound 1 µM.
The mark [11] stands for this setting: second compound 0.0316 µM, first compound 3.16 µM.
Where [12] appears, read: second compound 0.0316 µM, first compound 10 µM.
[13] abbreviates: second compound 0.1 µM, first compound 0.0316 µM.
Where [14] appears, read: second compound 0.1 µM, first compound 0.1 µM.
[15] abbreviates: second compound 0.1 µM, first compound 0.316 µM.
The mark [16] stands for this setting: second compound 0.1 µM, first compound 1 µM.
[17] abbreviates: second compound 0.1 µM, first compound 3.16 µM.
Setting [18] is: second compound 0.1 µM, first compound 10 µM.
Where [19] appears, read: second compound 0.316 µM, first compound 0.0316 µM.
Where [20] appears, read: second compound 0.316 µM, first compound 0.1 µM.
Setting [21] is: second compound 0.316 µM, first compound 0.316 µM.
The mark [22] stands for this setting: second compound 0.316 µM, first compound 1 µM.
[23] abbreviates: second compound 0.316 µM, first compound 3.16 µM.
[24] abbreviates: second compound 0.316 µM, first compound 10 µM.
[25] abbreviates: second compound 1 µM, first compound 0.0316 µM.
Setting [26] is: second compound 1 µM, first compound 0.1 µM.
The mark [27] stands for this setting: second compound 1 µM, first compound 0.316 µM.
[28] abbreviates: second compound 1 µM, first compound 1 µM.
[29] abbreviates: second compound 1 µM, first compound 3.16 µM.
The mark [30] stands for this setting: second compound 1 µM, first compound 10 µM.
Setting [31] is: second compound 3.16 µM, first compound 0.0316 µM.
Setting [32] is: second compound 3.16 µM, first compound 0.1 µM.
[33] abbreviates: second compound 3.16 µM, first compound 0.316 µM.
The mark [34] stands for this setting: second compound 3.16 µM, first compound 1 µM.
The mark [35] stands for this setting: second compound 3.16 µM, first compound 3.16 µM.
The mark [36] stands for this setting: second compound 3.16 µM, first compound 10 µM.
Setting [37] is: second compound 10 µM, first compound 0.0316 µM.
[38] abbreviates: second compound 10 µM, first compound 0.1 µM.
Setting [39] is: second compound 10 µM, first compound 0.316 µM.
[40] abbreviates: second compound 10 µM, first compound 1 µM.
The mark [41] stands for this setting: second compound 10 µM, first compound 3.16 µM.
Where [42] appears, read: second compound 10 µM, first compound 10 µM.
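Further: spheroids exposed to agents for 7 days before readout.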
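Wherever viability, T/C is given: percent viability relative to DMSO vehicle control taken as 100%.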

In general, pIC50 refers to −log10 of the IC50, conventionally taken in molar units. Broadly, the viability, T/C is the ratio of treated to control. With `CCCS(=O)(=O)Nc1ccc(F)c(C(=O)c2c[nH]c3ncc(-c4ccc(Cl)cc4)cc23)c1F` + CN(C)c1ccc(Nc2c3ccc(NC(=O)CCN4CCCC4)cc3nc3cc(NC(=O)CCN4CCCC4)ccc23)cc1, the pIC50 is, setting by setting: under setting [1], 5.24; under setting [2], 5.25; under setting [3], 5.23; under setting [4], 5.25; under setting [5], 5.27; under setting [6], 5.83. The viability, T/C under setting [7] is 113%; the viability, T/C under setting [8] is 112%; the viability, T/C under setting [9] was 107%; the viability, T/C under setting [10] is 98.5%; the viability, T/C under setting [11] is 80.8%; the viability, T/C under setting [12] was 22.4%. In addition, the viability, T/C by setting is: under setting [13], 98.9%; under setting [14], 116%; under setting [15], 100%; under setting [16], 102%; under setting [17], 79.1%; under setting [18], 21.5%. Besides, the viability, T/C was 107% under setting [19]; 115% under setting [20]; 97.7% under setting [21]; 111% under setting [22]; 84% under setting [23]; 20.9% under setting [24]. Also, the viability, T/C was 109% under setting [25]; 110% under setting [26]; 104% under setting [27]; 98% under setting [28]; 79.8% under setting [29]; 22.2% under setting [30]. The viability, T/C by setting is: under setting [31], 106%; under setting [32], 112%; under setting [33], 95.6%; under setting [34], 96.1%; under setting [35], 76.3%; under setting [36], 19.1%. The viability, T/C reads like this: under setting [37], 94.4%; under setting [38], 87.3%; under setting [39], 63.2%; under setting [40], 66.6%; under setting [41], 32.8%; under setting [42], 7.36%.
Consider `CC(=O)O[C@H]1C(=O)[C@@]2(C)[C@H]([C@H](OC(=O)c3ccccc3)[C@]3(O)C[C@H](OC(=O)[C@H](O)[C@@H](NC(=O)c4ccccc4)c4ccccc4)C(C)=C1C3(C)C)[C@]1(OC(C)=O)CO[C@@H]1C[C@@H]2O`, for which the viability, T/C is 5.56% and 11.2% and 8.51% (compound 0.0316 µM); 5.44% and 6.01% and 3.69% (compound 0.1 µM); 5.01% and 4.83% and 4.1% (compound 0.316 µM); 4.55% and 4.35% and 3.93% (compound 1 µM); 3.56% and 3.34% and 3.72% (compound 3.16 µM); 5.03% and 4.92% and 4.14% (compound 10 µM). In addition, the pIC50 (curve of compound) is > 7.50.
In the case of `CCCS(=O)(=O)Nc1ccc(F)c(C(=O)c2c[nH]c3ncc(-c4ccc(Cl)cc4)cc23)c1F`, the viability, T/C runs as follows: (compound 0.0316 µM) 117% and 113% and 109%; (compound 0.1 µM) 106% and 102% and 81.6%; (compound 0.316 µM) 110% and 103% (2×); (compound 1 µM) 92.1% and 92.8% and 79.2%; (compound 3.16 µM) 75.5% and 88.9% and 75.2%; (compound 10 µM) 21% and 22% and 16.1%. Moreover, the pIC50 (curve of compound) was 5.28 and 5.22 and 5.31.
Turning to `CC1COCCN1c1cc(C2(O)CC3CCC(C2)O3)c2cnn(-c3ccn[nH]3)c2n1` (configuration not stated), the viability, T/C (compound 0.0316 µM) is 39.5% and 42.2% and 31.3%; the viability, T/C (compound 0.1 µM) was 10.2% and 9.96% and 13.3%; the viability, T/C (compound 0.316 µM) was 7.94% and 8.95%; the viability, T/C (compound 1 µM) was 6.19% and 4.8% and 7.29%; the viability, T/C (compound 3.16 µM) was 5.19% and 5.01% and 5.9%; the viability, T/C (compound 10 µM) was 2.86% and 3.51% and 4.63%. Besides, the pIC50 (curve of compound) was > 7.50.
`O=C(NO)c1cnc(N2CCN(S(=O)(=O)c3ccc4ccccc4c3)CC2)nc1`: the viability, T/C by setting is: (compound 0.0316 µM) 114% and 111% and 117%; (compound 0.1 µM) 17.6% and 102% and 59%; (compound 0.316 µM) 0.33% and 5.46% and 5.25%; (compound 1 µM) 0.17% and 0.29% and 0.13%; (compound 3.16 µM) 0.1% and 0.26% and 0.04%; (compound 10 µM) 0.15% and 0.25% and 0.07%. The pIC50 (curve of compound) was 7.17 and 6.73 and 6.92.
For `O=C(c1cc(Cc2n[nH]c(=O)c3ccccc23)ccc1F)N1CCN(C(=O)C2CC2)CC1` + Cc1[nH]c2ccc(F)cc2c1-c1nc2c3cccnc3c3ncccc3c2[nH]1, the pIC50 is < 5.00 under setting [1]; < 5.00 under setting [2]; < 5.00 under setting [3]; < 5.00 under setting [4]; 5.38 under setting [5]; 5.97 under setting [6]. The viability, T/C was 103% under setting [7]; 85.7% under setting [8]; 106% under setting [9]; 87.3% under setting [10]; 97.2% under setting [11]; 63.3% under setting [12]. For the same molecule, the viability, T/C is 94% under setting [13]; 109% under setting [14]; 88.3% under setting [15]; 98.8% under setting [16]; 95.5% under setting [17]; 60% under setting [18]. Besides, the viability, T/C by setting is: under setting [19], 97.7%; under setting [20], 99.7%; under setting [21], 97.9%; under setting [22], 96.6%; under setting [23], 95.4%; under setting [24], 60.8%. In addition, the viability, T/C runs as follows: under setting [25], 85.9%; under setting [26], 115%; under setting [27], 97.8%; under setting [28], 97.4%; under setting [29], 89.4%; under setting [30], 62%. The viability, T/C under setting [31] is 98.9%; the viability, T/C under setting [32] is 98.5%; the viability, T/C under setting [33] is 97.3%; the viability, T/C under setting [34] was 93.8%; the viability, T/C under setting [35] is 54.5%; the viability, T/C under setting [36] is 35.6%. Besides, the viability, T/C runs as follows: under setting [37], 45.4%; under setting [38], 46.9%; under setting [39], 56.7%; under setting [40], 54.7%; under setting [41], 37.6%; under setting [42], 20.7%.
